Here are results for one substance from US6054464A (priority 1996, dated 2000).

One may read the pKd as the Kd on a negative log10 scale, so that one unit is a factor of ten. The low end stands for a large Kd, the high end for a small Kd.

pKd: −log10 of the molar value.

For this assay, the target named is α7 nAChR subtype (Rattus norvegicus, UniProt Q05941). Type of assay: binding.
α7 nAChR subtype, sequence (Q05941 23-502 limits assumed): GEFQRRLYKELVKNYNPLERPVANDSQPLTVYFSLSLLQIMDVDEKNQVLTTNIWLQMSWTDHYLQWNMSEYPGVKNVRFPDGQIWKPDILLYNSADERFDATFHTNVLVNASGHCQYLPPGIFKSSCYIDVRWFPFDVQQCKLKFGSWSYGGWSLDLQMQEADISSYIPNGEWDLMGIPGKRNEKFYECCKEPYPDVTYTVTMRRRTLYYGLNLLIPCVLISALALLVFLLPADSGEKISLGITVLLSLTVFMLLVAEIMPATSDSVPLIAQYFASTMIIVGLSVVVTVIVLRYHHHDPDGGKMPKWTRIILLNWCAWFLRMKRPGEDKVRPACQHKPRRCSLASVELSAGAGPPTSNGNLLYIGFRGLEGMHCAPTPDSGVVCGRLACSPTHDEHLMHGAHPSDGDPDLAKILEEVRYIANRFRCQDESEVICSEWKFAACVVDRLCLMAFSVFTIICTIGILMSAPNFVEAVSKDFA

On to “[^125 I]-α-Bungarotoxin [[^125 I]-α-BTX]”, for which the pKd is 8.78.
